Reference: patent US10881642B2, “Autophagy enhancer and use thereof” (Industry-Academic Cooperation Foundation, Yonsei University, priority 2016, dated 2021)

Tested on: primary peritoneal macrophages
Experiment: IL-1β ELISA / inflammasome activation in macrophages
Assay type: cell-based, C57BL/6 mice
Method: FIG. 5 is the results indicating the present compound MSL reduces the activation of inflammasome and enhances the function of mitochondria. FIG. 5A is the results of the experiment in which primary peritoneal macrophages were isolated and treated with palmitic acid, LPS and MSL and then the concentration of IL-beta was measured from the supernatant using ELISA. Error bars, S.D. **, P<0.01; ***, P<0.001, two-way ANOVA. […]
Screening of autophagy enhancer. […] Firefly luciferase was determined after mixing 5 μl of lysate with 25 μl of Luciferase Assay Reagent II. Renilla luciferase was then determined after further addition of 20 ul of Stop&Glo Reagent. […] Cytotoxicity was determined by the measurement of LDH release in cell culture media using the LDH kit (Roche), according to the protocol from the manufacturer. […] Imaging and image quantification. […] Formation of acidic vesicular organelles was quantitated by staining the cells with acridine orange (Invitrogen, 5 ug/ml, 10 min). […] Cells or tissues were solubilized in lysis buffer supplemented with protease and phosphatase inhibitors and protein concentration was measured by the Bradford method. Ten to 30 micrograms were loaded on 4-12% Bis-Tris gel (NUPAGE, Invitrogen) or 8-15% SDS-PAGE, transferred to PVDF membranes and analyzed by western blot using the ECL method (Pierce). […]

CSc1oc(-c2ccccc2)nc1S(=O)(=O)c1ccc(F)cc1 [MSL]
release of IL-1β measured by ELISA (PA in combination with LPS): significantly decreased | caspase-1 cleavage and IL-1 β maturation (Western blot) (data not shown): decreased
